Reference: patent US20090176837A1, “COMPOUNDS WITH ACTIVITY AT RETINOIC ACID RECEPTORS” (SONY CORPORATION, priority 2006, published 2009)
Like-named read-outs stand apart in the source and are kept apart here.

Assays:
RARβ2 = molecular target: T1, RARβ2 (Homo sapiens, UniProt P10826); test: Receptor Selection and Amplification Technology (R-SAT) functional receptor assay; format: cell-based
T1 construct: expressed in transfected cells
T1 sequence (P10826 1-448 isoform P10826-2): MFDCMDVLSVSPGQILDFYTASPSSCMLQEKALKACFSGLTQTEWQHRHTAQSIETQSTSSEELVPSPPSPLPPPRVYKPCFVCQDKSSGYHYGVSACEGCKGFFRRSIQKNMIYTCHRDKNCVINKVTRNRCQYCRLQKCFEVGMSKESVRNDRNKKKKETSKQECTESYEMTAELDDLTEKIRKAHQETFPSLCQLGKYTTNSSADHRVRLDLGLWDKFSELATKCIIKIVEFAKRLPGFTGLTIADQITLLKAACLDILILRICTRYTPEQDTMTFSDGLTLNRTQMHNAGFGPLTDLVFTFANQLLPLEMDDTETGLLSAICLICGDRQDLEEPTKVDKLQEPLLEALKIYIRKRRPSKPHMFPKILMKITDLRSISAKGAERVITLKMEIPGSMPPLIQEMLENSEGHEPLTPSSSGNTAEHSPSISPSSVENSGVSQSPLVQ
From the text: The functional receptor assay, Receptor Selection and Amplification Technology (R-SAT), was used to investigate the pharmacological properties of known and novel RARβ agonists and antagonists.
Efficacy is relative to the maximal response of the reference ligand, Am-580.

NTERA-2 Cells = test: Induction of neuronal differentiation in NTERA-2 cells; format: cell-based
[1] = Table 1, efficacy relative to the maximal response of the reference ligand Am-580
[2] = Table 1, efficacy relative to the maximal response of the reference ligand Am-580, read-out: % Eff.
[3] = Table 1, read-out: pEC50 (converted)
[4] = Table 2, efficacy relative to the maximal response of the reference ligand Am-580, read-out: % Eff.
[5] = Table 2, read-out: pEC50 (converted)

| SMILES | pEC50 (RARβ2; Table 1) | Emax (RARβ2; [2]) [%] | EC50 (RARβ2; [3]) [nM] | also measured |
| --- | --- | --- | --- | --- |
| CCCCCCCCc1ccc(-c2ccc(C(=O)O)cc2)cc1 [Compound 6] | 7.73 | – | – | % Eff. (RARβ2; [1]): 104%; neuronal differentiation (NTERA-2 Cells): induce neuronal differentiation |
| CCCCCCCCc1ccc(-c2ccc(C(=O)OCCc3ccccn3)cc2)cc1 [Compound 68] | – | – | – | neuronal differentiation (NTERA-2 Cells): induce neuronal differentiation |
| CCCCCCCCc1ccc(-c2ccc(C(=O)OCCc3ccccn3)c(F)c2)cc1 [Compound 5, 3-Fluoro-4′-octyl-biphenyl-4-carboxylic acid 2-pyridin-2-yl-ethyl ester] | – | – | – | Emax (RARβ2; [4]): 124%; EC50 (RARβ2; [5]): 16.2 nM |
| CCCCCCCCc1ccc(-c2ccc(C(=O)NS(C)(=O)=O)cc2)cc1 [Compound 60, N-(4′-Octyl-biphenyl-4-carbonyl)-methanesulfonamide] | – | 51 | 832 | – |
| CCCCCCCCc1ccc(-c2ccc(C(=O)OCCc3ccccn3)cc2)cc1 [Compound 14] | – | – | – | pEC50 (RARβ2; Table 2): 7.38; % Eff. (RARβ2; Table 2, efficacy relative to the maximal response of the reference ligand Am-580): 93% |
| CCCCCCCCOc1ccc(-c2ccc(C(=O)NCCC#N)cc2)cc1 [Compound 51, 4′-Octyloxy-biphenyl-4-carboxylic acid (2-cyano-ethyl)-amide] | – | 59 | 309 | – |
| CCCCCCCCOc1ccc(-c2ccc(C(=O)OCc3ccco3)cc2)cc1 [Compound 43, 4′-Octyloxy-biphenyl-4-carboxylic acid furan-2-ylmethyl ester] | – | – | – | Emax (RARβ2; [4]): 67%; EC50 (RARβ2; [5]): 214 nM |
| CCCCCCOc1cc(C)c(-c2ccc(C(=O)O)cc2)cc1C [Compound 11, 4′-(Hexyloxy)-2′,5′-dimethyl[1,1′-biphenyl]-4-carboxylic acid] | – | 78 | 27.5 | – |
| CCCCCCCCc1ccc(-c2ccc(C(=O)O)cc2)cc1 [Compound 53, 4′-Octyl[1,1′-biphenyl]-4-carboxylic acid] | – | – | 513 | % Eff. (RARβ2; [1]): 99% |
| CCCCCCCc1ccc(-c2ccc(C(=O)O)cc2)cc1 [Compound 9] | 7.59 | 76 | – | – |
| CCCCC(CC)COc1nc(-c2ccc(C(=O)O)cc2)sc1C (stereo not shown) [Compound 46, 4-[4-(2-Ethyl-hexyloxy)-5-methyl-thiazol-2-yl]-benzoic acid] | – | 54 | 263 | – |

More lines, main results first:

| pEC50 (RARβ2; Table 1) | Emax (RARβ2; [2]) [%] | EC50 (RARβ2; [3]) [nM] | SMILES | also measured |
| --- | --- | --- | --- | --- |
| 7.34 | 37 | – | CCCCCCc1ccc(-c2ccc(C(=O)O)cc2)cc1 [Compound 16] | – |
| 7.08 | 78 | – | CCCCCCCCc1ccc(-c2ccc(C(=O)Nc3ccc(C)cn3)cc2)cc1 [Compound 29] | – |
| – | 84 | 676 | CCCCCCCCc1ccc(-c2ccc(C(=O)O)c(C)c2)cc1 [Compound 55, 3-Methyl-4′-octyl[1,1′-biphenyl]-4-carboxylic acid] | – |
| 7.21 | 58 | – | CCCCCCCOc1ccc(-c2ccc(C(=O)O)cc2)cc1 [Compound 24] | – |
| – | 77 | 676 | Cc1sc(-c2ccc(C(=O)O)cc2)nc1OCC(=O)NC(C)CCC(C)C (stereo not shown) [Compound 57, 4-[4-[2-[(1,4-Dimethylpentyl)amino]-2-oxoethoxy]-5-methyl-2-thiazolyl]-benzoic acid] | – |
| 7.37 | 76 | – | CCCCCCCCc1ccc(-c2ccc(C(=O)n3cnc(NC(C)=O)n3)cc2)cc1 [Compound 15] | – |
